Legend:
[1] = tested on: Oxyticha nova G-quadruplex (DNA, G4) GGGGTTTTGGGG; assay: CD melting; conditions: 100 mM NaCl; 10 mM Tris-HCl pH 7.5; no change of Tm 59.2 °C; binds by end-stacking
[2] = tested on: HT G-quadruplex (DNA, G4) AGGGTTAGGGTTAGGGTTAGGG; assay: CD melting at 295 nm; conditions: 100 mM NaCl; 10 mM Tris-HCl pH 7.5; derived from two Tm (56.6, 61.0); highest compound concentration, ratio only in Figure 2D
[3] = tested on: HT G-quadruplex (DNA, G4) AGGGTTAGGGTTAGGGTTAGGG; assay: UV-vis absorption titration; conditions: 100 mM NaCl; 10 mM Tris-HCl pH 7.5, 25 °C; fit with [DNA] in base pairs, binding size s = 2.3; per base
[4] = tested on: Oxyticha nova G-quadruplex (DNA, G4) GGGGTTTTGGGG; assay: UV-vis absorption titration; conditions: 100 mM NaCl; 10 mM Tris-HCl pH 7.5, 25 °C; fit with [DNA] in base pairs, binding size s = 1; per base
[5] = tested on: ds-DNA (HT with complementary sequence) (DNA, duplex) AGGGTTAGGGTTAGGGTTAGGG/CCCTAACCCTAACCCTAACCCT; assay: time-resolved luminescence at 620 nm; conditions: 100 mM NaCl; 10 mM Tris-HCl pH 7.5; lifetimes 492 and 88.1 ns
[6] = tested on: HT8 (DNA, G4) AGGGTTATGGTTAGGGTTAGGG; assay: time-resolved luminescence at 620 nm; conditions: 100 mM NaCl; 10 mM Tris-HCl pH 7.5; lifetimes 1046 and 151.2 ns
[7] = tested on: HT10 (DNA, G4) AGGGTTAGGTTTAGGGTTAGGG; assay: time-resolved luminescence at 620 nm; conditions: 100 mM NaCl; 10 mM Tris-HCl pH 7.5; lifetimes 430.7 and 61.4 ns

Structure (SMILES): [Ru+2].c1ccc2nc3c4cccnc4c4ncccc4c3nc2c1.c1cnc2c(c1)ccc1cccnc12.c1cnc2c(c1)ccc1cccnc12
- ΔTm [1]: 0 °C
- ΔTm [2]: 4.4 °C
- K [3]: 5.1e+06 M⁻¹
- K [4]: 990000 M⁻¹
- binding [5]: yes
- binding [6]: yes
- binding [7]: yes
